In patent publication US9315520B2, “2-amino-6-methyl-4,4a,5,6-tetrahydropyrano[3,4-d][1,3]thiazin-8a(8H)-yl-1,3-thiazol-4-yl amides” (Pfizer Inc., priority 2014, dated 2016):
Where two headings read alike, the source gives them in different places.

How the values were obtained:
[1] = GSH Incubation Assay; format: in vitro ADME
Method: The test compound (10 μM in DMSO) was incubated with L-glutathione (50 mM, prepared in 100 mM potassium phosphate buffer) at 37° C. for 4 hours and then analyzed by HPLC-UV/MS/MS without work-up. Thermo Accela HPLC and Velos Pro Orbitrap Elite (S/N: SN05189B) operating in positive mode with a source voltage of 3.5 kV with data dependant processing. HPLC with a Phenomenox Kinetex C18, 1.7 μM, 2.1×100 mm. column (P/N: 00D-4475-AN), 5% acetonitrile/95% 0.1% formic acid for 0.5 min then a 7.0 min linear gradient to 40% acetonitrile/60% 0.1% formic acid, 400 μL/min., column temperature 45° C. Product assignments were based on high resolution mass spectrometer fragmentation.

[2] = molecular target: P-glycoprotein (MDR1-transfected MDCK cell line) (Homo sapiens (Human), UniProt P08183); assay: Pgp Liability MDR1 Er; format: in vitro ADME; settings: Papp BA/AB, MDR1-transfected MDCK
From the text: (§1) MDR1 Efflux Ratio (MDR Er) from MDR1-transfected MDCK line cell line represents the ratio of permeability, Papp BA/AB. Procedure utilized from (Feng, B.; Mills, J. B.; Davidson, R. E.; Mireles, R. J.; Janiszewski, J. S.; Troutman, M. D.; de Morais, S. M. In vitro P-glycoprotein assays to predict the in vivo interactions of P-glycoprotein with drugs in the central nervous system. Drug Metab. Dispos. 2008, 36, 268-275.

[3] = molecular target: P-glycoprotein (MDR1) (Homo sapiens (Human), UniProt P08183); assay: Pgp Liability MDR1 Er; format: in vitro ADME; settings: dog; MDR1-transfected MDCK cell line; ratio of permeability, Papp BA/AB
From the text: as §1

[4] = molecular target: CYP2D6 (Homo sapiens (Human), UniProt P10635); assay: General Multi-Point Cocktail DDI IC50 Assay
Method: General Multi-Point Cocktail DDI IC50 Assay Conditions:
The incubation volume is 0.1 mL, utilizing a 384-well plate format. […] Substrate concentrations are near Km values that had been previously determined and incubation times are selected based on determinations of reaction velocity linearity. […] Samples are directly injected on an HPLC/MS/MS system. A Biomek FX workstation is used for liquid handling and sample incubation.

[5] = molecular target: hERG channel (Homo sapiens (Human), UniProt Q12809); assay: hERG Patch Clamp Assay; format: cell-based
Method: After a ˜30 minute recovery period, experiments were initiated.
hERG Potassium Channel Current Recordings and Data Analysis:
The intracellular recording saline was composed of (in […]): 70 KF, 60 KCl, 15 NaCl, 5 EGTA, 5 HEPES, and adjusted to pH 7.2±0.1 with KOH. […] Test pulses were delivered at a frequency of 0.25 Hz. Up to 4 different concentrations were studied on each cell, each exposure lasting 5 minutes or until steady-state effects were observed. […] Using Sophion Qpatch Assay Software, the amplitude of the peak outward hERG current upon repolarizing ramp was measured. Current amplitude was determined by taking the average of the last 5 current peaks under each treatment condition. […] When possible, a concentration-response curve was plotted and the data were fitted using Qpatch software to determine an IC50. The P<0.05 was considered statistically significant.

[6] = pKa; format: physicochemical; settings: Measurement determined at Analyza; read-out: pKa
[7] = HLM Clint (clearance in human liver microsomes); format: in vitro ADME
[8] = molecular target: BACE1 (Homo sapiens (Human), UniProt P56817); assay: BACE1 Cell-Free Assay (fluorescence polarization); format: biochemical
[9] = test system: sAPPβ, the primary cleavage product of BACE1, in H4 human neuroglioma cells over-expressing the wild-type human APP695; assay: sAPPβ Whole-Cell Assay (WCA); format: cell-based; settings: Homo sapiens, 18 h
Method: sAPPβ Whole-Cell Assay (WCA):
sAPPβ, the primary cleavage product of BACE1, was determined in H4 human neuroglioma cells over-expressing the wild-type human APP695. […] The colorimetric reaction was read by an EnVision (PerkinElmer) plate-reader.

[10] = Aniline structural alert

CYP2D6, sequence (P10635 whole entry): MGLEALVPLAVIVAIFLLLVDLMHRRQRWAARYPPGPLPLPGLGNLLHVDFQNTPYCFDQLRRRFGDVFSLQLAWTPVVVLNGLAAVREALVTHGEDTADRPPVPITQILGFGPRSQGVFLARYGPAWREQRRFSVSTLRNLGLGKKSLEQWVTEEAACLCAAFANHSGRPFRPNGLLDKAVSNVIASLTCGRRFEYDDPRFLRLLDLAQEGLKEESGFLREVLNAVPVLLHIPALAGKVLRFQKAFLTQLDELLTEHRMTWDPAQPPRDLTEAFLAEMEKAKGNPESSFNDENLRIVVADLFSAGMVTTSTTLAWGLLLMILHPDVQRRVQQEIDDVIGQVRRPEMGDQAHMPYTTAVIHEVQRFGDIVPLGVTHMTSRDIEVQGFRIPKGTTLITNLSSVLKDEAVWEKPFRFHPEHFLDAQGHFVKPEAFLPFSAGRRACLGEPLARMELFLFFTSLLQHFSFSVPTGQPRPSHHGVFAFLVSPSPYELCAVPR
BACE1, sequence (P56817 46-457): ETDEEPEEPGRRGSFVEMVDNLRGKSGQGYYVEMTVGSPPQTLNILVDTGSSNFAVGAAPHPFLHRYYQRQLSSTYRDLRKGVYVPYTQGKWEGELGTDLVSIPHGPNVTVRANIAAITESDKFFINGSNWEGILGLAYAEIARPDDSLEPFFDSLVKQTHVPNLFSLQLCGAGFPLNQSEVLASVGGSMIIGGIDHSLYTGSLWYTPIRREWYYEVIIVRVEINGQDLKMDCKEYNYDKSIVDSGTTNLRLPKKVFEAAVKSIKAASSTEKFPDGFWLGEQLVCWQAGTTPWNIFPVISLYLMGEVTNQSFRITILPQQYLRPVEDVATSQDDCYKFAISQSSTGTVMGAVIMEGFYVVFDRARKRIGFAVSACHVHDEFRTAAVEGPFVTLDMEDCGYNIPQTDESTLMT
hERG channel, sequence (Q12809 whole entry): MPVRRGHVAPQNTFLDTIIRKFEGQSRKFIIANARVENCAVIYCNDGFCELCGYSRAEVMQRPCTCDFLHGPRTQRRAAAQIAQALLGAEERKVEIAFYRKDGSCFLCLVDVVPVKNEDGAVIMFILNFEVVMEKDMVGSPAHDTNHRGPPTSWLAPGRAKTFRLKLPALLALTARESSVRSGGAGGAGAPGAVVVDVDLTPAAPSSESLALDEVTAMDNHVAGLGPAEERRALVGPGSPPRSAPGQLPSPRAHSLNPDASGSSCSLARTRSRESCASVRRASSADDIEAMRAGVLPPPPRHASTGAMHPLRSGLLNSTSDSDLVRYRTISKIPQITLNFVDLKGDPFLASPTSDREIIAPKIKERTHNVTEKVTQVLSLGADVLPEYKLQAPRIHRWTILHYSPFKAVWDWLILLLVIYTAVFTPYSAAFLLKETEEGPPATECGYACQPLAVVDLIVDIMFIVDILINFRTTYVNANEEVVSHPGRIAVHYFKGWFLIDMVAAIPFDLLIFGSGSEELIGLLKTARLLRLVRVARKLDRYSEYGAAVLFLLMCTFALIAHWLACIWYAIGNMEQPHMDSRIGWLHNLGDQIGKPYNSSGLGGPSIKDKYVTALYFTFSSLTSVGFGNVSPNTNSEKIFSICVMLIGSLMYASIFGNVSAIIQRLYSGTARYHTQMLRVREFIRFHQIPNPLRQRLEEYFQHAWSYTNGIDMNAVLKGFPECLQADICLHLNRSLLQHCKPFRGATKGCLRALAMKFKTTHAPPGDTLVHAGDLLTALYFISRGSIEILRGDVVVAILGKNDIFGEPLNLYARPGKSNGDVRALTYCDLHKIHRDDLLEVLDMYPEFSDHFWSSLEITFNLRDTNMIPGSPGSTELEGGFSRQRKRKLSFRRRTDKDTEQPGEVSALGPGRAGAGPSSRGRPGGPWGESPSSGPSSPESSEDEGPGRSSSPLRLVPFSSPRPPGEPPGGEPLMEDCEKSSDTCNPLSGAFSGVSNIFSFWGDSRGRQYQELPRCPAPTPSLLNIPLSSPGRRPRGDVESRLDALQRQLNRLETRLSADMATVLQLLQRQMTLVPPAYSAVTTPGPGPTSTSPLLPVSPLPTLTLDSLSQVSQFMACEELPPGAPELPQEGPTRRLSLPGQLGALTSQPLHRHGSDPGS
P-glycoprotein (MDR1), sequence (P08183 whole entry): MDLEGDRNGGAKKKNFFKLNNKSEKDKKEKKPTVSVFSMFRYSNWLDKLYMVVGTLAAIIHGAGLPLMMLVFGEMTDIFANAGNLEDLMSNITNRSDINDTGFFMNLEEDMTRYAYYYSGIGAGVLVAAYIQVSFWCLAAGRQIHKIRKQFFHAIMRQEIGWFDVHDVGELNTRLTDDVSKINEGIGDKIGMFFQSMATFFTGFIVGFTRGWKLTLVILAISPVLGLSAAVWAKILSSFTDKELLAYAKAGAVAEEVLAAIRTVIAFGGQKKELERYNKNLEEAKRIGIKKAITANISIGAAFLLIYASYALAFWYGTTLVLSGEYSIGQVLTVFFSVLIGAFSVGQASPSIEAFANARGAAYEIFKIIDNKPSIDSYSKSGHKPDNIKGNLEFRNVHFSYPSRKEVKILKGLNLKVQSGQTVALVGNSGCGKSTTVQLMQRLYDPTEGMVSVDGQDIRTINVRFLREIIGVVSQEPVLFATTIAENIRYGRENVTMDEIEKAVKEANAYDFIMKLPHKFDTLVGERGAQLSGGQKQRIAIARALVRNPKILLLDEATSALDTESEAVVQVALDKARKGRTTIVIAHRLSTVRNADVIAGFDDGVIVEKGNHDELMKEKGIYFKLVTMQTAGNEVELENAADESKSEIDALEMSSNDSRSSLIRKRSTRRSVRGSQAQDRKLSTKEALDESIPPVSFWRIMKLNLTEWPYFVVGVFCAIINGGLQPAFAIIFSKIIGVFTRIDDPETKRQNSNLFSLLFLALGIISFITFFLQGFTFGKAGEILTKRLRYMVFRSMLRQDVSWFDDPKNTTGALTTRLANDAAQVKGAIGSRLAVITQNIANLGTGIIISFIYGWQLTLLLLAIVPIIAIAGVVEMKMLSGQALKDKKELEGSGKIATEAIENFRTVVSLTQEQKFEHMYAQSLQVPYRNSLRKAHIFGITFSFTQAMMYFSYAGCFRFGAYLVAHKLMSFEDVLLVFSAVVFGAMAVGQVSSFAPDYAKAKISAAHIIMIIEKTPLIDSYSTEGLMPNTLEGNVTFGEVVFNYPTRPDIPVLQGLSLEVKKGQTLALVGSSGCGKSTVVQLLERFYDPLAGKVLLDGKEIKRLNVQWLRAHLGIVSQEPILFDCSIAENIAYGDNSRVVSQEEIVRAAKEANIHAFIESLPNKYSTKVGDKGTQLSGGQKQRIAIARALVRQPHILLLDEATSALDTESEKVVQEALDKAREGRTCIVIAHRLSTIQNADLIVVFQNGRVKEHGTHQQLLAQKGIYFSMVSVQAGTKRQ
P-glycoprotein (MDR1-transfected MDCK cell line), sequence (P08183 whole entry): as above

SMILES: C[C@H]1C[C@H]2CSC(N)=N[C@@]2(c2nc(NC(=O)c3cnc(OC(F)F)cn3)cs2)CO1 [Example 2, N-{2-[(4aR,6S,8aR)-2-amino-6-methyl-4,4a,5,6-tetrahydropyrano[3,4-d][1,3]thiazin-8a(8H)-yl]-1,3-thiazol-4-yl}-5-(difluoromethoxy)pyrazine-2-carboxamide]
- Observed GSH adducts ([1]; Incubations with glutathione (50 mM) at 37° C. in buffer for 4 hours): Negative
- formation of GSH adducts ([1]; following incubations): not detected
- Pgp liability MDR1 Er [2]: < 2.5
- efflux ratio [3]: 1.8
- IC50 [4]: > 30000 nM
- IC50 ([4]; human, microsomes, pH 7.4): > 30000 nM
- IC50 ([5]; CHO cell transfected with hERG gene, automated Qpatch HT system): 23600 nM
- IC50 ([5]; CHO cells transfected with hERG): > 5000 nM
- pKa [6]: 6.8
- HLM CLint [7]: <8 mL/min/kg
- CLint scaled ([7]; human): < 8 mL/min/kg
- IC50 ([8]; Table 4, read-out: BACE1 Cell Free IC50): 73 nM
- IC50 ([8]; geometric mean of 2-4 determinations unless otherwise indicated (b: ≧5; c: single determination), read-out: BACE1 Cell-free Assay IC50): 73 nM
- IC50 [9]: 7 nM
- Aniline Structural Alert [10]: No
